The test system of one data set is MHH-CALL4. Nature of the data set: WST-1 proliferation assay, MHH-CALL4. Type of data set: cell-based, human. As to conditions: Homo sapiens, MHHCALL4; WST-1, 48 hours of treatment. The method, then:
(§1) Albert Pinhasov (Ariel University, Ariel, Israel). […] Granta cells were kindly provided by Prof.
(§2) Table 3 [resents the calculated IC50 values (μM) for each chimera in different hematological malignancies cell-lines. The proliferation rate was measured by WST-1 assay after 48 hours of treatment. The result shown for each concentration point represents the […]
In general terms: Tetrazolium dyes change colour on reduction, which living cells bring about.

The subject of another data set is HEL. Nature of the data set: WST-1 proliferation assay, HEL. Type of data set: cell-based, human. As to conditions: Homo sapiens, HEL; WST-1, 48 hours of treatment. The method, then:
as §1, §2

Another data set relates to DND41. Put plainly: WST-1 proliferation assay, DND41. Type of data set: cell-based, human. As to conditions: Homo sapiens, DND41; WST-1, 48 hours of treatment. The method, then:
as §1, §2

The test system of data set [1] is triple negative breast cancer (TNBC) MDA 231 cells. As to conditions: for weight maintenance, survival and tumor growth suppression compared with doxorubicin: ip administration. The method, then:
Five-week-old athymic Nude-Foxn 1nu male mice (ENVIGO Labs, Nes Ziona, Israel) were subcutaneously inoculated on the dorsal left side with […] (1×10^6 cell) into nu/nu mice, 0.2 mL per mouse) and tumors allowed to establish over time. When tumor volume reached 100 mm^3, Doxorubicin (Dox) and Doxorubizen (Chimera 9) were administered intraperitoneally (ip). Animals were removed from an experiment if either of the following conditions were fulfilled: reduction of 20% or more body weight; tumor volume>0.55 cm^3. The tumor dimensions were measured using a Vernier caliper and the volume was calculated according to the equation: Volume (mm^3) ¼ length×width×width×½ three times per week. The in vivo experiments were approved by the Animal Ethics Committee (Authorization number IL-179-06-19).
Chimera 9 was also evaluated for its effect on breast cancer model. For this evaluation, […] nude female (6-8 weeks) mice (groups 1, 2, two mice per group, groups 3, 4, 5 three mice per group) were inoculated with triple negative breast cancer (TNBC) MDA 231 cells. Group 1 was used as the control for tumor growth. After 10 days, mice were […] (ip) administered with Doxorubicin (groups 2 and 4) and Chimera 9 (Doxorubizen) (groups 3 and 5) in the following regime: ip administration of 2.5 mg/kg Doxorubicin once per week (group 2) and three sequential days per week (group 4); ip administration of 3.5 mg/kg chimera 9 once per week (group 3) and three sequential days per week (group 5). Overall experiment carried out for 5 weeks and 4 days, when the tumor volumes for all the groups were monitored. Tumors were then resected and measured.

Data set [2] concerns 10 hematological cell-lines. Put plainly: In vitro cytotoxicity screening on the panel of hematological cell-lines (WST-1).
Protocol: The above cells were cultured in RPMI medium (Gibco, Thermo Fisher Scientific Inc., USA). […] All media were supplemented with 10% heat-inactivated Fetal Bovine Serum (FBS, Biological industries, Israel), 2 mM glutamine (Biological industries, Israel) and 1% penicillin and streptomycin (Biological industries, Israel). Cells were cultured at 37° C. in a humidified incubator with 5% CO2.
Growth inhibition in hematological malignancies cell-lines was measured by tetrazolium WST-1 assay (Roche, Basel, Switzerland). Cells (1*10^4) were treated with various concentrations of the specific chimera or parental drug. After 48 h of incubation, 10 μl of WST-1 reagent was added to the plate and incubated for 1 h at 37° C., at which point the absorbance (450 nm) was measured in an ELISA plate reader (Synergy HTX multi-mode reader, Winooski, Vermont, USA).
MUTZ5 and MHH-CALL4; B-cell Acute lymphocytic leukemia (B-cell ALL) model. DND41; T-ALL model. KG-1a and OCI-AML-3; Acute myeloid leukemia (AML) model and HEL; erythroleukemia model.
Setting [3] is: Group 5: ip 3.5 mg/kg, three sequential days per week.

“Also recorded” adds a separate entry of the source. Where two headings read alike, the source gives them in different places.

As a reminder, the IC50 is the concentration that gives 50% inhibition. A high value points to a need for much substance.

For `COC(=O)N(C)/N=N/c1ccc(CNC2CC(OC3CC(O)(C(=O)CO)Cc4c(O)c5c(c(O)c43)C(=O)c3c(OC)cccc3C5=O)OC(C)C2O)cc1` (stereo not shown) [Chimera 9, (E)-methyl-3-(4-(((3-hydroxy-2-methyl-6-((3,5,12-trihydroxy-3-(2-hydroxyacetyl)-10-methoxy-6,11-dioxo-1,2,3,4,6,11-hexahydrotetracen-1-yl)oxy)tetrahydro-2H-pyran-4-yl)amino)methyl)phenyl)-1-methyltriaz-2-ene-1-carboxylate], the IC50 was 1140 nM with MHH-CALL4, 970 nM with HEL and 640 nM in the data set with DND41. In data set [1] (Group 3: ip 3.5 mg/kg once per week), the “outcome compared to Group 2 (Doxorubicin once per week)” value is listed as “no statistical significance”. Moreover, the body weight entry in data set [1] (setting [3]) is listed as “didn't lose weight”. Besides, the toxicity vs doxorubicin result in data set [1] (setting [3]) is recorded as “reduced toxicity”. Further, the tumor volume entry in data set [1] (setting [3]) is reported as “even reduced”. For the same compound, the survival result in data set [1] (Group 5: ip 3.5 mg/kg, three sequential days per week, 3.5 mg/kg) is given as “full survival; also recorded: survived until the end of the experiment”. In addition, the “weight maintenance, survival and tumor growth suppression compared with doxorubicin” value in data set [1] is “markedly superior”; in data set [1] (listed as Doxorubizen), “profoundly superior”. Also, in data set [2] (250 nM), the cytotoxic effect entry is reported as “exceptional cytotoxic effect”. In addition, in data set [2] (10 hematological cell-lines, WST-1), the “effect on proliferation rate across the examined cell-lines” value was “inhibited the proliferation rate in all the examined cell-lines”. Further, the “cytotoxic effect compared to the parental non-conjugated drug” value in data set [2] (chimera vs its parent drug) is reported as “reduced proliferation rate of numerous cell-lines; also recorded: superior to Doxorubicin”.
